Measurements as given in patent US9192610B2, “Use of quinazoline derivatives for neurodegenerative diseases” (CONSEJO SUPERIOR DE INVESTIGACIONES CIENTIFICAS, priority 2009, dated 2015).

Legend:
[1] = Antioxidant effect, ORAC-FL method (capacity to capture free radicals); details: 75 mM phosphate buffer pH 7.4, 37° C., compounds tested at 4 concentrations
Description: Given that in many neurodegenerative diseases neuronal death occurs due to oxidative stress, the capacity of these compounds to capture free radicals has been evaluated using the ORAC methodology.
Determination is following the ORAC-FL method of Ou et al. partially adapted by BMG LABTECH (BMG LABTECH Application note 148 (2006): ORAC Assay on the FLUOstar OPTIMA to Determine Antioxidant Capacity. http://www.bmglabtech.com/application-notes/fluorescence-intensity/orac 148.cfm). The FLUOstar Optima (BMG Labtechnologies GmbH, Offenburg, Germany) plate reader was used with an excitation filter at 485 nm excitation and 520 nm emission. 2,2′-Azobis-(amidinopropane) dihydrochloride (AAPH), (±)-6-hydroxy-2,5,7,8-tetramethylchromane-2-carboxylic acid (trolox) and fluorescein (FL) are purchased from Sigma-Aldrich. The reaction is carried out in 75 mM phosphate buffer (pH 7.4) and a final reaction volume of 200 μL. The antioxidant (25 μL) and fluorescein (150 μL; 10 nM) are placed on black 96-well plates (96F untreat, Nunc™). The mixture is pre-incubated during 30 minutes at 37° C. afterwards rapidly adding a solution of AAPH (25 μL, 240 mM), using a multi-channel pipette. The microplate is rapidly placed on the reader and fluorescence is measured every 90 sec during 90 min. The 96-well plate is agitated automatically before each reading. The compounds are tested at 4 different concentrations (10-1 μ). A blank is also placed (FL+AAPH in phosphate buffer) and as reference compound four concentrations of trolox (10-1 μM). All reactions are carried out in duplicate, and at least three different tests per compound. Data are exported to an Excel spreadsheet (Microsoft), representing absorbance versus time and subsequently the area under curve is calculated following the formula (1) AUC=f1/f0+fi/f0+ . . . +f34/f0+(f35/f0) wherein: AUC=area under curve • f0=fluorescence measured at time 0 • fi=fluorescence measured at time t
The net AUC values of each compound are determined by subtracting from the AUC value of the compound the AUC value of the blank (FL+AAPH in phosphate buffer).
The measurement of antioxidant is expressed in trolox equivalents. Relative trolox equivalents are calculated according to formula (2): […]

[2] = commercial drugs used to validate the PAMPA assay; literature value; cited from earlier work

| SMILES | Antioxidant capacity, Trolox equivalents [1] | Bibliography (described permeability) [2] |
| --- | --- | --- |
| CSc1nc2c(C)cccc2c(=O)n1-c1ccccc1Br [Comp. 5, 3-(2-bromophenyl)-8-methyl-2-methylthio-4-oxo-3,4-dihydroquinazoline] | Not to 10 μM | – |
| CCn1cc(C(=O)O)c(=O)c2cc(F)c(N3CCNCC3)nc21 [Enoxacine] | – | 1.8 |
| CN(C)CCCN1c2ccccc2Sc2ccccc21 [Promazine] | – | 8.1 |
| CSc1nc2ccccc2c(=S)n1-c1ccccc1 [Comp. 7, 3-phenyl-2-methylthio-4-thioxo-3,4-dihydroquinazoline] | 0.37 Trolox equivalents | – |
| Cc1cccc2c(=O)n(-c3ccccc3Br)c(=S)[nH]c12 [Comp. 3, 3-(2-bromophenyl)-8-methyl-4-oxo-2-thioxo-1,2,3,4-tetrahydroquinazoline] | 1.31 Trolox equivalents | – |
| O=c1c2ccccc2[nH]c(=S)n1-c1c(F)cccc1F [Comp. 2, 3-(2,6-difluorophenyl)-4-oxo-2-thioxo-1,2,3,4-tetrahydroquinazoline] | Not to 10 μM | – |
| CSc1nc2c(C)cccc2c(=O)n1-c1c(F)cccc1F [Comp. 4, 3-(2,6-difluorophenyl)-8-methyl-2-methylthio-4-oxo-3,4-dihydroquinazoline] | 0.13 Trolox equivalents | – |
| S=c1[nH]c2ccccc2c(=S)n1-c1ccccc1 [Comp. 6, 3-phenyl-2,4-dithioxo-1,2,3,4-tetrahydroquinazoline] | 0.46 Trolox equivalents | – |
| O=c1c2ccccc2[nH]c(=S)n1-c1ccccc1 [Comp. 1, 3-phenyl-4-oxo-2-thioxo-1,2,3,4-tetrahydroquinazoline] | 1.19 Trolox equivalents | – |
